Measurements published in patent US20090214426A1, “Assay Method” (priority 2004, published 2009).
Entries after “also recorded” stand apart in the source; their conditions may differ.

Key:
CCI rats [1] = test: Beam walking test in CCI rats; type: in vivo, rat; conditions: for efficacy on reversing beam walking impairments: summary statement, dose not stated
Description: (§1) The CCI of sciatic nerve is performed as previously described by Bennett and Xie (1988). Animals are anaesthetized with a 2% isofluorane/O2 mixture maintained during surgery via a nose cone and the common sciatic nerve is exposed at the middle of the right thigh by blunt dissection through biceps femoris. Proximal to the sciatic trifurcation, about 7 mm of nerve is freed of adhering tissue and 4 ligatures (4-0 silk) are tied loosely around it with about 1 mm spacing. Ligatures are tied such that the circulation through the superficial epineural vasculature is retarded but not arrested. The incision is then closed in layers and the wound treated with topical antibiotics. In the sham-operated group an identical dissection is performed on the ipsilateral paw except the sciatic nerve is not ligated.
The Beam walking apparatus consists of a 1.5 m long beam with a 2.5×2.5 cm square cross section, elevated 75 cm above the floor. The test is performed in dim light conditions (18 lux). A light source (520 lux) is placed at the start-end of the beam while a dark box at the other side (Goldstein & Davis, 1990, J Neurosci Methods; 31:101-107). Rats are trained over a period of 2 days to cross the beam. On the day of the test an additional training section is performed before the proper test trial was performed. […] Rats that cross the beam without using the ipsilateral paw are given a maximal number of foot slips.
Starting from 3 weeks post surgery, CCI rats are selected based on their performances. Only those showing a number of foot slips of 2 or above are selected and used for the pharmacological validation of the test. A group of naïve CD rats are treated with vehicle and used as positive controls. […]

CCI rats [2] = test: Open field test in CCI rats; type: in vivo, rat; conditions: for reversal of pain-related anxiety-like behaviour of CCI rats: summary statement, dose not stated
Description: as §1
(§2) The spontaneous locomotor activity of rats in an open field is monitored for 30 minutes in a 70×70 cm dark arena (Prut ans Beizung, 2003, Eur J Pharmacol. 463:3-33). Each animal was placed in the centre of the arena and a video camera recorded movement of the animal. Four rats are recorded simultaneously in four different cages. Data are collected and analysed by Ethovision 3.0 software (Noldus IT, Netherdland) and the exploratory behaviour is expressed as number of entries in the central area of the arena (23×23 cm).
To measure the anxiety-like behaviour in CCI rats the open field test is carried out in normal light conditions (100 Lux).
For a pharmacological validation of the model, CCI rats with a poor exploratory activity (entries≦6) are pre selected in the open field and a week later treated with diazepam (1 and 3 mg/kg, i.p.), tramadol (30 mpk, p.o.) or gabapentin (30-100 mg/kg, p.o.). Naïve CD vehicle-treated rats are used as positive control.

CCI rats [3] = test: Rota rod test in CCI rats; type: in vivo, rat; conditions: analgesic doses; selected rats with mean performance <80 seconds; data not shown
Description: as §1
The rota rod test consists of 4 rotatable drums divided by flanges with a motor-driven drum which is capable of acceleration (Ugo Basile, Comerio, VA, Italy). For a given trial, a rat is placed on the rotating rod and the rotation speed is accelerated from 4 to 16 revolutions per minute (rpm) in 2 minutes. The time of maximal performance is set at 120 seconds (Voikar V et al, 2001, Physiol Behav., 2001; 72:271-81). […]

fibromyalgia patients = conditions: randomised controlled clinical trials (Mease 2003); cited from earlier work
CCI rats [4] = test: Object recognition test in CCI rats; type: in vivo, rat; conditions: tramadol 100 mg/kg po, 3.5 hours post familiarization, tested 30 minutes later
Description: as §1
The Object Recognition test was performed as described by Ennaceur and Delacour (1988). The apparatus consisted of a black circular arena 55 cm in diameter with 50 cm black walls. […]
Each animal was trained prior to testing; this involved handling and habituation of the rat to the arena for 5 minutes per session, twice a day for three consecutive days. […] The distance moved in the arena and the time spent exploring each object during familiarization and sample phases were recorded manually and automatically, respectively by the videotracking system (Noldus Ethovision 3.0, Netherland). […]

[5] = system: patients with diabetic neuropathy and post herpetic neuralgia; conditions: randomised controlled clinical trials (Backonja 1998; Rowbotham 1998); cited from earlier work
CD naïve rat = test: Open field test in naïve rats (anxiogenic validation); type: in vivo
Description: as §2
To measure the anxiety-like behaviour in CCI rats the open field test is carried out in normal light conditions (100 Lux). […] To confirm that the environmental conditions we set up, could let us measure an anxiety-like behaviour, the activity of the anxiogenic compound mCPP was tested in CD naïve rat.

**Q.** With `CN(C)CCC=C1c2ccccc2CCc2ccccc21` [Amitriptyline] as the compound, how does the “neuropathic rats performance in the beam walking task” value (CCI rats [1]; amitriptyline 2 mg/kg (FIG. 2C)) read?
**A.** The value was “did not improve”.

**Q.** What about the “neuropathic rats performance in the beam walking task” value (CCI rats [1]; amitriptyline 20 mg/kg (data not shown)) of the same compound?
**A.** Its value is “did not improve”.

**Q.** What about the “efficacy on reversing beam walking impairments” value (CCI rats [1]) of the same compound?
**A.** The value was “does not”.

**Q.** For `CN1C(=O)CN=C(c2ccccc2)c2cc(Cl)ccc21` [Diazepam], which “pain-related anxiety-like behaviour of CCI rats (entries in centre)” value (CCI rats [2]; diazepam 1 mg/kg IP, 30 minutes before the test (FIG. 5A)) is on record?
**A.** Its value is “did not”.

**Q.** And the “pain-related anxiety-like behaviour of CCI rats (entries in centre)” value (CCI rats [2]; diazepam 3 mg/kg (higher dose, data not shown))?
**A.** The value was “did not”.

**Q.** And the “reversal of pain-related anxiety-like behaviour of CCI rats” value (CCI rats [2])?
**A.** The value was “does not reverse”.

**Q.** What does the source list for `CN1CC[C@]23c4c5ccc(O)c4O[C@H]2[C@@H](O)C=C[C@H]3[C@H]1C5` [Morphine]?
**A.** rats performance in the beam walking test (CCI rats [1]; morphine 1 mg/kg s.c. (lower dose)): not statistically different from the control value; number of foot slips (CCI rats [1]; morphine 3 mg/kg s.c. (higher dose), 30 minutes post dosing, vs 6±1 baseline, p<0.05): 3±1; number of foot slips (CCI rats [1]; morphine 3 mg/kg s.c. (higher dose), 1 hour post dosing, vs 5±1 baseline, p<0.05): 2±1; efficacy on reversing beam walking impairments (CCI rats [1]): show efficacy; rota rod performance of neuropathic rats (CCI rats [3]): did not improve; also recorded: did not showed improvement

**Q.** Which “QoL deficit of fibromyalgia patients” value (fibromyalgia patients) does the source give for `CC(C)C[C@H](CN)CC(=O)O` [Pregabalin] here?
**A.** Its value is “showed efficacy”.

**Q.** Which “efficacy on reversing beam walking impairments” value (CCI rats [1]) does the source give for `COc1cccc(C2(O)CCCCC2CN(C)C)c1` (stereo not shown) [Tramadol] here?
**A.** Its value is “show efficacy”.

**Q.** What about the “performance of rats in the beam walking test” value (CCI rats [1]; tramadol 30 mg/kg p.o.) of the same compound?
**A.** Its value is “not significantly different from CCI controls”.

**Q.** And the “number of foot slips” value (CCI rats [1]; tramadol 100 mg/kg p.o. (higher dose), 1 hour post drug administration, vs 6±1 CCI vehicle-treated group, p<0.01)?
**A.** Its value is 1±1.

**Q.** And the “ability of CCI rats to cross the beam” value (CCI rats [1]; tramadol 30-100 mg/kg p.o.)?
**A.** The value was “dose dependently improves”.

**Q.** What about the “rota rod performance of neuropathic rats” value (CCI rats [3]) of the same compound?
**A.** Its value is “did not improve; also recorded: did not showed improvement”.

**Q.** What about the “reversal of pain-related anxiety-like behaviour of CCI rats” value (CCI rats [2]) of the same compound?
**A.** Its value is “does not reverse”.

**Q.** And the “pain-related anxiety-like behaviour of CCI rats (entries in centre)” value (CCI rats [2]; tramadol 30 mg/kg PO, 30 minutes before the test (FIG. 5A))?
**A.** Its value is “did not”.

**Q.** What about the “pain-related anxiety-like behaviour of CCI rats (entries in centre)” value (CCI rats [2]; tramadol 100 mg/kg (higher dose, data not shown)) of the same compound?
**A.** Its value is “did not”.

**Q.** And the “cognitive dysfunction (memory/attention deficit) of neuropathic rats” value (CCI rats [4])?
**A.** Its value is “reversed”.

**Q.** And the “discrimination index compared to vehicle-treated CCI rats” value (CCI rats [4]; P<0.01)?
**A.** Its value is “significant increase”.

**Q.** What does the source list for `NCC1(CC(=O)O)CCCCC1` [gabapentin]?
**A.** number of entries in the centre of the open field compared to CCI vehicle-treated group (CCI rats [2]; gabapentin 30 mg/kg p.o.): increased; anxiety-like behaviour of injured rats (CCI rats [2]; gabapentin 100 mg/kg p.o.): completely reversed; number of entries in the centre of the open field (CCI rats [2]; gabapentin 100 mg/kg p.o., 1 hour before the test, vs 14±2 naïve vehicle-treated group, NS): 12±2; exploratory activity of neuropathic rats (CCI rats [2]; gabapentin 30-100 mg/kg p.o.): improved; reversal of pain-related anxiety-like behaviour of CCI rats (CCI rats [2]): does; QoL of patients [5]: demonstrated an improvement

**Q.** Which “exploratory activity (number of entries)” value (CD naïve rat; mCPP 1-3 mg/kg i.p.) does the source give for `Clc1cccc(N2CCNCC2)c1` [mCPP] here?
**A.** The value was “dose-dependent decrease”.

**Q.** What about the “number of entries in the centre of the arena” value (CD naïve rat; mCPP higher dose (3 mg/kg) i.p., vs 13±3 vehicle-treated) of the same compound?
**A.** The value was 5±2.

**Q.** What about the “rats that explored the centre less than 6 times” value (CD naïve rat; mCPP, compared to 16% in the control group) of the same compound?
**A.** The value was “Seventy-five”.
